Laboratory results taken from patent US20140315973A1, “PARP-1 INHIBITORS” (priority 2010, published 2014).

Columns and labels:
HBV core promoter = assay: Dual-luciferase reporter assay of HBV core promoter; format: cell-based, HBV genotype A
Description: The HBV core promoter deletions were cloned using a multi-step strategy. First, the wild-type core promoter from HBV genotype A was inserted via KpnI and HindIII sites on the PGL3 Basic vector. Using this as the template, PGLF (5′ TCCCCAGTGCAAGTGCAGG) was used with reverse primer BX, where “X” denotes the deletion number and contains the nucleotide sequence flanking the 3′ end of the deletion. This amplifies the 5′ half of mutant core promoter. Primer CX containing nucleotide sequences flanking the 5′ end of the deletion site was then used with reverse primer PGLR (5′ […]) to synthesize the 3′ end of the mutant promoter. The 2 halves were annealed via their complementary sequences and amplified using primers PGLF and PGLR. PCR was performed using the Expand High Fidelity PCR System (Roche), and ran on 1% agarose gels in TBE buffer. DNA of appropriate sizes were extracted using the Qiaquick Gel Extraction Kit (Qiagen), double-digested with enzymes from New England BioLabs, then annealed using the Quick Ligation Kit.
Assays were performed with the Dual-Luciferase® Reporter Assay System (Promega) with modifications. HepG2 cells were seeded 18 hours prior to transfection in 24-well plates in triplicates at a density of 1.5×10^5 cells per well. Transfection was performed with 2.2 μl Lipofectamine 2000 (Invitrogen), 1 μg of PGL3 Basic construct plasmid and 15 ng of Renilla-luciferase construct per well. Additionally, 250 ng of over-expression plasmids for PARP-1 mutants were used when indicated. Transfected cells were lysed with 60 μl lysis buffer at 37° C. on a shaking incubator for 20 minutes after washing thrice with ice-cold PBS 30 hours post-transfection and 50 μl of the lysate was transferred on ice into black 96-well plates with clear bottoms (Corning), and luminescence measured with the GloMax® Multi-Microplate Multimode Reader (Promega).

breast or ovarian cancer = conditions: cited from earlier work
HepG2 cells = assay: Viable HBV-RFP transfected HepG2 cells; format: cell-based; conditions: 15 μM, 72 hours after PARP inhibition
Description: (§1) The coding sequence for red fluorescent protein (RFP) was cut from the pTurboFP635N (Evrogen) and inserted into the pcDNA3.1+ vector containing the HBV construct into the MCS via KpnI and NotI sites.

HBV = HBV transcripts in HepG2 cells transfected with HBV-RFP; format: cell-based, HBV genotype A; conditions: 15 μM, added 24 hours after transfection, 48 hours later
Description: Full-length replicative HBV genotype A (approximately 1.1X HBV genome starting from nucleotide 1535, ending at nucleotide 1930) driven by its own core promoter cloned from another construct and inserted into pcDNA3.1+ via the MfeI and MluI restriction sites, […] of the CMV promoter. Primers used are as follows: […]
as §1

SMILES: NC(=O)c1cccc(N)c1 [3-AB, 3-aminobenzamide]
- transcription (luciferase expression) at wild-type HBV core promoter (HBV core promoter; HepG2, inhibitor added 24 hours after transfection): increased transcription at the HBV core promoter in a dose-dependent manner
- luciferase expression, mutant HBV core promoter with deletion of the PARP-1 binding site (Del-PARP1 motif) (HBV core promoter; HepG2 and Huh-7): negligible effect
- luciferase expression, wild-type HBV core promoter (HBV core promoter; Huh-7): increased luciferase expression

SMILES: O=C(c1cc(Cc2n[nH]c(=O)c3ccccc23)ccc1F)N1CCN(C(=O)C2CC2)CC1 [olaparib]
- durable objective antitumor activity (breast or ovarian cancer; 60 patients, including 22 BRCA mutation carriers): observed only in confirmed carriers of a BRCA1 or BRCA2 mutation
- BRCA carriers with ovarian, breast, or prostate cancers showing a clinical benefit (breast or ovarian cancer; Twelve of 19 BRCA carriers): 63%
- side-effect profile (breast or ovarian cancer; phase 1, orally active): acceptable side-effect profile

SMILES: CN(C)CC(=O)Nc1ccc2[nH]c(=O)c3ccccc3c2c1 [PJ-34]
- relative percentage of viable cells that were HBV-transfected vs DMSO control (HepG2 cells): significantly higher
- increase in relative amounts of HBV transcripts (HBV): more than 3 fold
